Activity calls are given as the source filed them. The calls are words filed in the database; no cut-off is given here.
How the values were obtained:
[1] = Cmax in fasted BALB/c mouse at 20 mg/kg, iv administered upto 600 mins by HPLC-MS/MS analysis; type: ADME, organism-based; parameters: time < 600 min, dose 20 mg/kg, route iv; details: in vivo
[2] = Volume of distribution in fasted BALB/c mouse at 20 mg/kg, iv administered upto 600 mins by HPLC-MS/MS analysis; type: ADME, organism-based; details: in vivo
[3] = Clearance in fasted BALB/c mouse at 20 mg/kg, iv administered upto 600 mins by HPLC-MS/MS analysis; type: ADME, organism-based; details: in vivo
[4] = AUC (0 to t) in fasted BALB/c mouse at 20 mg/kg, iv administered upto 600 mins by HPLC-MS/MS analysis; type: ADME, organism-based; parameters: dose 20 mg/kg, time < 600 min, route iv; details: in vivo
[5] = Tmax in fasted BALB/c mouse at 20 mg/kg, iv administered upto 600 mins by HPLC-MS/MS analysis; type: ADME, organism-based; details: in vivo
[6] = Elimination rate constant in fasted BALB/c mouse at 20 mg/kg, po administered upto 600 mins by HPLC-MS/MS analysis; type: ADME, organism-based; details: in vivo
[7] = Bioavailability in fasted BALB/c mouse at 20 mg/kg, iv administered upto 600 mins by HPLC-MS/MS analysis; type: ADME, organism-based; details: in vivo
[8] = Tmax in fasted BALB/c mouse at 20 mg/kg, po administered upto 600 mins by HPLC-MS/MS analysis; type: ADME, organism-based; details: in vivo
[9] = AUC (0 to t) in fasted BALB/c mouse at 20 mg/kg, po administered upto 600 mins by HPLC-MS/MS analysis; type: ADME, organism-based; parameters: dose 20 mg/kg, time < 600 min, route po; details: in vivo
[10] = AUC (0 to infinity) in fasted BALB/c mouse at 20 mg/kg, iv administered upto 600 mins by HPLC-MS/MS analysis; type: ADME, organism-based; parameters: dose 20 mg/kg, time < 600 min, route iv; details: in vivo
[11] = Half life in fasted BALB/c mouse at 20 mg/kg, iv administered upto 600 mins by HPLC-MS/MS analysis; type: ADME, organism-based; details: in vivo
[12] = Half life in fasted BALB/c mouse at 20 mg/kg, po administered upto 600 mins by HPLC-MS/MS analysis; type: ADME, organism-based; details: in vivo
[13] = Elimination rate constant in fasted BALB/c mouse at 20 mg/kg, iv administered upto 600 mins by HPLC-MS/MS analysis; type: ADME, organism-based; details: in vivo
[14] = Cmax in fasted BALB/c mouse at 20 mg/kg, po administered upto 600 mins by HPLC-MS/MS analysis; type: ADME, organism-based; parameters: time < 600 min, dose 20 mg/kg, route po; details: in vivo
[15] = AUC (0 to infinity) in fasted BALB/c mouse at 20 mg/kg, po administered upto 600 mins by HPLC-MS/MS analysis; type: ADME, organism-based; parameters: dose 20 mg/kg, time < 600 min, route po; details: in vivo
[16] = target: T1, Histone-lysine N-methyltransferase, H3 lysine-79 specific (Homo sapiens, UniProt Q8TEK3); experiment: Binding affinity to human DOT1L assessed as binding free energy difference
Target sequence in this assay (Q8TEK3 whole entry, looked up): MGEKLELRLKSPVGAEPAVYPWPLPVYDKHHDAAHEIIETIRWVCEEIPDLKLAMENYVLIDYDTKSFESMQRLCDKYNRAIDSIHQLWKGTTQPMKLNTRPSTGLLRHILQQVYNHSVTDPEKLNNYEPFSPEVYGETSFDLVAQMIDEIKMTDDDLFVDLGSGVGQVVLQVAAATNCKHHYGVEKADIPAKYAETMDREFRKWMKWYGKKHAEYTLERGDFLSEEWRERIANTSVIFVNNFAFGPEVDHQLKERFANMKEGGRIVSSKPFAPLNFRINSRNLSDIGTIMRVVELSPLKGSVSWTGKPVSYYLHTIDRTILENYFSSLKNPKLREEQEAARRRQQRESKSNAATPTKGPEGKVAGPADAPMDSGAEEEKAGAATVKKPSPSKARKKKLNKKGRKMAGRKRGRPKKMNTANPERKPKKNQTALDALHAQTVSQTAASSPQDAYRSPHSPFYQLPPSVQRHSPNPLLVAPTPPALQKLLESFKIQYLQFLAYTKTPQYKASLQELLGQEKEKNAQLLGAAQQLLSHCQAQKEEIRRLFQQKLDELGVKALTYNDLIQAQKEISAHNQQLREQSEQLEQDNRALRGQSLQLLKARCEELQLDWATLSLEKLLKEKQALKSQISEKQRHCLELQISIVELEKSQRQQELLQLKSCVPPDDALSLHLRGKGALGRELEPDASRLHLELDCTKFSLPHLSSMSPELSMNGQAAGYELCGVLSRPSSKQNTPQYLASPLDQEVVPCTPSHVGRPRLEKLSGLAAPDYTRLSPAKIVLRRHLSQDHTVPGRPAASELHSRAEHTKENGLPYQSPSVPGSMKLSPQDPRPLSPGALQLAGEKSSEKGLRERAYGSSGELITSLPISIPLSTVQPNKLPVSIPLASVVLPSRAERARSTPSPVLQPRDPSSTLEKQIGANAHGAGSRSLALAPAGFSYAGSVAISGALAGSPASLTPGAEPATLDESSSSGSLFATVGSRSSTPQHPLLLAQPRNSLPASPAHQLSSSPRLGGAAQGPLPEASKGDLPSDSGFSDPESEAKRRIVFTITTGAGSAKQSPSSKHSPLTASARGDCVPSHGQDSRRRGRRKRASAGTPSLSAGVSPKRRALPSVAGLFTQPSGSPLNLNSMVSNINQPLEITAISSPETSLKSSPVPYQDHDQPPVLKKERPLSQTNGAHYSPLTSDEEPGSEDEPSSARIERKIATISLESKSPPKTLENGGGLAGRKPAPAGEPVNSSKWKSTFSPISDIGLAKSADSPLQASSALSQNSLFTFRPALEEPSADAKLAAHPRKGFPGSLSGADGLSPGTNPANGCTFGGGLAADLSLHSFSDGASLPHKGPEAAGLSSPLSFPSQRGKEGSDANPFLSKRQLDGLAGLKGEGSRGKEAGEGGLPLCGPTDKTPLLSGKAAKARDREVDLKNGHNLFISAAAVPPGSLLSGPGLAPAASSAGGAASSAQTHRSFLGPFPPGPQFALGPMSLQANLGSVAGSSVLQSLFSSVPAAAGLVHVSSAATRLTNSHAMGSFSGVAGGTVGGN

[17] = target: T1, Histone-lysine N-methyltransferase, H3 lysine-79 specific; experiment: Inhibition of human DOT1L by hotspot PMT activity assay
Target sequence in this assay (Q8TEK3 whole entry): as the sequence (Q8TEK3 whole entry, looked up) above

[18] = target: T1, Histone-lysine N-methyltransferase, H3 lysine-79 specific; experiment: Inhibition of DOT1L in human MOLM-13 cells assessed as decrease in H3K79 methylation at 1 to 10 uM using histone H3 as substrate incubated for 5 days by immunoblotting assay; type: cell-based; details: dose 1-10 µM, time 5.0 day, DDE = dose-dependent effect
Target sequence in this assay (Q8TEK3 whole entry, looked up): as above

[19] = target: T1, Histone-lysine N-methyltransferase, H3 lysine-79 specific; experiment: Inhibition of DOT1L in human MOLM-13 cells assessed as decrease in H3K79 methylation at 1 to 10 uM using histone H3 as substrate incubated for 3 days by immunoblotting assay; type: cell-based; details: dose 1-10 µM, time 3.0 day, DDE = dose-dependent effect
Target sequence in this assay (Q8TEK3 whole entry, looked up): as above

[20] = target: T1, Histone-lysine N-methyltransferase, H3 lysine-79 specific; experiment: Inhibition of DOT1L in human OCI-AML5 cells assessed as decrease in H3K79 methylation at 1 to 10 uM using histone H3 as substrate incubated for 5 days by immunoblotting assay; type: cell-based; details: dose 1-10 µM, time 5.0 day, DDE = dose-dependent effect
Target sequence in this assay (Q8TEK3 whole entry, looked up): as above

[21] = target: T1, Histone-lysine N-methyltransferase, H3 lysine-79 specific; experiment: Inhibition of DOT1L in human SU-DHL-4 cells assessed as decrease in H3K79 methylation at 1 to 10 uM using histone H3 as substrate incubated for 5 days by immunoblotting assay; type: cell-based; details: dose 1-10 µM, time 5.0 day, DDE = dose-dependent effect
Target sequence in this assay (Q8TEK3 whole entry, looked up): as above

[22] = Elimination rate constant in fasted BALB/c mouse at 5 mg/kg, iv administered upto 600 mins by HPLC-MS/MS analysis; type: ADME, organism-based; details: in vivo, iv, 5 mg/kg, 10 h
[23] = Acute toxicity in BALB/c mouse at 10 to 20 mg/kg,iv; type: organism-based; details: in vivo, dose 10-20 mg/kg
OCI-AML-3 [24] = experiment: Cytotoxicity against human OCI-AML-3 cells assessed as reduction of cell viability at 1 to 40 uM incubated for 5 to 15 days by DiOC6/ propidium staining based flow cytometry analysis; type: functional; details: dose 1-40 µM, time 5-15 day
[25] = Volume of distribution in fasted BALB/c mouse at 5 mg/kg, iv administered upto 600 mins by HPLC-MS/MS analysis; type: ADME, organism-based; details: in vivo
MOLM-13 [26] = experiment: Cytotoxicity against human MOLM-13 cells assessed as reduction of cell viability at 1 to 40 uM incubated for 5 to 15 days by DiOC6/ propidium staining based flow cytometry analysis; type: functional; details: dose 1-40 µM, time 5-15 day
[27] = Tmax in fasted BALB/c mouse at 5 mg/kg, iv administered upto 600 mins by HPLC-MS/MS analysis; type: ADME, organism-based; details: in vivo
[28] = Cmax in fasted BALB/c mouse at 5 mg/kg, iv administered upto 600 mins by HPLC-MS/MS analysis; type: ADME, organism-based; parameters: time < 600 min, dose 5 mg/kg, route iv; details: in vivo
OCI-AML-3 [29] = experiment: Cytotoxicity against human OCI-AML-3 cells assessed as reduction of cell viability at 1 to 40 uM incubated for 5 to 15 days by WST-1 assay; type: functional, cell-based; details: dose 1-40 µM, time 5-15 day
[30] = Acute toxicity in BALB/c mouse assessed as death at 10 to 20 mg/kg,iv; type: organism-based; details: in vivo, dose 10-20 mg/kg
[31] = Clearance in fasted BALB/c mouse at 5 mg/kg, iv administered upto 600 mins by HPLC-MS/MS analysis; type: ADME, organism-based; details: in vivo
[32] = AUC (0 to t) in fasted BALB/c mouse at 5 mg/kg, iv administered upto 600 mins by HPLC-MS/MS analysis; type: ADME, organism-based; parameters: time < 600 min, dose 5 mg/kg, route iv; details: in vivo
[33] = Acute toxicity in BALB/c mouse assessed as respiratory failure at 5 mg/kg,iv measured after 6 to 7 mins; type: organism-based; details: in vivo, time 6-7 min
[34] = AUC (0 to infinity) in fasted BALB/c mouse at 5 mg/kg, iv administered upto 600 mins by HPLC-MS/MS analysis; type: ADME, organism-based; parameters: dose 5 mg/kg, time < 600 min, route iv; details: in vivo
[35] = Acute toxicity in BALB/c mouse assessed as mild tremor at 5 mg/kg,iv measured after 6 to 7 mins; type: organism-based; details: in vivo, time 6-7 min
[36] = target: T1, Histone-lysine N-methyltransferase, H3 lysine-79 specific; experiment: Inhibition of DOT1L in human OCI-AML5 cells assessed as decrease in H3K79 methylation at 1 to 10 uM using histone H3 as substrate incubated for 3 days by immunoblotting assay; type: cell-based; details: dose 1-10 µM, time 3.0 day, DDE = dose-dependent effect
Target sequence in this assay (Q8TEK3 whole entry, looked up): as above

[37] = Half life in fasted BALB/c mouse at 5 mg/kg, iv administered upto 600 mins by HPLC-MS/MS analysis; type: ADME, organism-based; details: in vivo, iv, 5 mg/kg, 10 h
MOLM-13 [38] = experiment: Cytotoxicity against human MOLM-13 cells assessed as metabolic activity at 1 to 40 uM incubated for 5 to 15 days by WST-1 assay; type: functional, cell-based; details: dose 1-40 µM, time 5-15 day
[39] = target: T1, Histone-lysine N-methyltransferase, H3 lysine-79 specific; experiment: Inhibition of DOT1L in human SU-DHL-4 cells assessed as decrease in H3K79 methylation at 1 to 10 uM using histone H3 as substrate incubated for 3 days by immunoblotting assay; type: cell-based; details: dose 1-10 µM, time 3.0 day, DDE = dose-dependent effect

CC(C)NC[C@H]1C[C@@H](c2ccc3c(N)ncnn23)[C@H](O)[C@@H]1O
Cmax [1]: 40800 ng/mL
Vd [2]: 3.88 L/kg
clearance [3]: 23.3 mL/min/kg
AUC(0-t) at 10 h [4]: 14200 ng·h/mL
Tmax [5]: 5 min
k el at 10 h [6]: 0.000257 s⁻¹
bioavailability [7]: 9%
Tmax [8]: 120 min
AUC(0-t) at 10 h [9]: 1200 ng·h/mL
AUC(0-inf) [10]: 14200 ng·h/mL
half-life [11]: 115 min
half-life [12]: 44.9 min
k el at 10 h [13]: 0.0001 s⁻¹
Cmax [14]: 561 ng/mL
AUC(0-inf) [15]: 1300 ng·h/mL

CN(CCCNC(=O)Nc1ccccc1)C[C@H]1C[C@@H](c2ccc3c(N)ncnn23)[C@@H](O)[C@@H]1O
deltaG [16]: 3.82 kcal/mol

CC(C)N(CCCNC(=O)Nc1ccc(C(C)(C)C)cc1)C[C@H]1C[C@@H](c2ccc3c(N)ncnn23)[C@H](O)[C@@H]1O
IC50 [17]: 292 nM

CC(C)N(CCCNC(=O)NC12CC3CC(CC(C3)C1)C2)C[C@H]1C[C@@H](c2ccc3c(N)ncnn23)[C@H](O)[C@@H]1O
IC50 [17]: > 10000 nM

CN(CCCNC(=O)Nc1ccc(C(C)(C)C)cc1)C[C@H]1C[C@@H](c2ccc3c(N)ncnn23)[C@H](O)[C@@H]1O (stereo in doubt; (+)-25)
IC50 [17]: 7410 nM

CN(CCCNC(=O)Nc1ccccc1)C[C@H]1C[C@@H](c2ccc3c(N)ncnn23)[C@H](O)[C@@H]1O
IC50 [17]: 369 nM

CC(C)N(C[C@H]1O[C@@H](n2cnc3c(N)ncnc32)[C@H](O)[C@@H]1O)[C@H]1C[C@@H](CCc2nc3cc(C(C)(C)C)ccc3[nH]2)C1 [PINOMETOSTAT]
Activity [18]: Dde
Activity [19]: Dde
Activity [20]: Dde
Activity [21]: Dde
Kel [22]: 0.00161 min⁻¹
Activity [23]: Toxic
Activity (OCI-AML-3 [24]): Active
Vd [25]: 1.07 L/kg
Activity (MOLM-13 [26]): Active
Tmax [27]: 5 min
Cmax [28]: 13900 ng/mL
Activity (OCI-AML-3 [29]): Active
Activity [30]: Toxic
clearance [31]: 17.1 mL/min/kg
Tmax [8]: 5 min
AUC(0-t) at 10 h [32]: 4830 ng·h/mL
AUC(0-t) at 10 h [9]: 0.662 ng·h/mL
Activity [33]: Toxic
AUC(0-inf) [34]: 4870 ng·h/mL
Activity [35]: Toxic
Activity [36]: Dde
t1/2 [37]: 43.2 min
Cmax [14]: 15.9 ng/mL
Activity (MOLM-13 [38]): Active
Activity [39]: Dde

CN(CCCNC(=O)Nc1ccccc1)C[C@H]1C[C@@](O)(c2ccc3c(N)ncnn23)[C@H](O)[C@@H]1O
deltaG [16]: 3.35 kcal/mol

CC(C)N(C[C@@H]1C[C@H](c2ccc3c(N)ncnn23)[C@@H](O)[C@H]1O)[C@H]1C[C@@H](CCc2nc3cc(C(C)(C)C)ccc3[nH]2)C1
IC50 [17]: 80 nM

— ChEMBL document CHEMBL5154806, “Synthesis and Profiling of Highly Selective Inhibitors of Methyltransferase DOT1L Based on Carbocyclic C-Nucleosides” (J Med Chem, 2022)
